In patent US20210403864A1, “METHODS AND COMPOSITIONS FOR TREATING ACTIVATED G-ALPHA Q MUTANT CANCERS OR MELANOCYTIC MALIGNANCIES” (Memorial Sloan Kettering Cancer Center, priority 2018, published 2021):
Where two headings read alike, the source gives them in different places.

Columns and labels:
[1] = system: KRAS^G12V-expressing melan-a cells; test: TPA-independent cell growth, CellTiter-glo 2.0; assay type: cell-based, mouse; settings: 5 days, without TPA
Description: (§1) Data are expressed as the percentage relative light units (RLU) relative to that observed with vehicle. Error bars, s.e.m. from triplicate samples.
(§2) Cell Culture and in vitro analysis. Mutation dependent melan-a cells were generated by transducing cells with cDNAs in MSCV-PURO (retrovirus) and then selecting cells with puromycin (1 μg/ml) for two days. TPA (Sigma-Aldrich, St. Louis, Mo.) was then withdrawn from cultures. Cells with activating mutations (CYSLTR2^L129Q, GNAQ^G48V/R183Q/Q209L, KRAS^G12V, and BRAF^V600E) continued to proliferate over several passages (>2 weeks) and were then validated with qRT-PCR and immunoblots. Vector and WT controls were unable to maintain proliferation after a couple passages upon TPA withdrawal. All cells were cultured in media containing 10% FBS, L-glutamine ([…]), penicillin (100 U/ml), streptomycin (100 μg/ml). Melan-a cells provided by D. Bennett, St. George's Hospital, University of London (Johnson C P, et al., PLoS One. 12(6):1-17 (2017)), were cultured in RPMI supplemented with 200 nM TPA unless otherwise noted. HEK293T (from ATCC, Manassas, Va.) cells were cultured in DMEM-Q and UVM cells were cultured in RPMI. All cells tested negative for mycoplasma. Cell growth assays and YM dose response curves were assayed using CellTiter-glo 2.0 (Promega, Madison, Wis.) at given time points or after five days of incubation with YM and readout on a Glomax Luminometer (Promega, Madison, Wis.). IC50 values were calculated using Prism 7.0 software. Growth assays were compared to day 1 readings and dose response curves were compared to vehicle. Data shown is representative of at least three independent experiments with at least three technical replicates. Dose-response curves and growth assays were analyzed using GraphPad Prism 7.0 software.

[2] = system: BRAF^V600E-expressing melan-a cells; test: TPA-independent cell growth, CellTiter-glo 2.0; assay type: cell-based, mouse; settings: 5 days, without TPA
Description: as §1, §2

[3] = system: GNAQ^R183Q-expressing melan-a cells; test: TPA-independent cell growth, CellTiter-glo 2.0; assay type: cell-based, mouse; settings: 5 days, without TPA
Description: as §1, §2

[4] = system: GNAQ^G48V-expressing melan-a cells; test: TPA-independent cell growth, CellTiter-glo 2.0; assay type: cell-based, mouse; settings: 5 days, without TPA
Description: as §1, §2

[5] = system: BRAF-mutant A375 cutaneous melanoma cells; test: Colony formation assay; assay type: cell-based, human; settings: 1000 cells per well, until colonies visible in vehicle plates
Description: (§3) To evaluate the effect of YM-254890 and trametinib in vitro, colony formation assays were performed. 1000 cells per well of the following cell lines were plated: (1) BRAF-mutant A375 cutaneous melanoma cells, (2) Gq-mutant Mel202 cells, and (3) Gq-mutant OMIM1.3 uveal melanoma cells. The cells were then treated with a negative vehicle control, YM-254890, trametinib, or both. Cells were allowed to grow until visible colonies formed in the vehicle-treated plates.

[6] = system: Gq-mutant OMIM1.3 uveal melanoma cells; test: Colony formation assay; assay type: cell-based, human; settings: 1000 cells per well, until colonies visible in vehicle plates
Description: as §3

Gq-mutant Mel202 cells = test: Colony formation assay; assay type: cell-based, human; settings: 1000 cells per well, until colonies visible in vehicle plates
Description: as §3

GNAQ^R183Q = target: T1, GNAQ^R183Q (Homo sapiens, UniProt P50148, R183Q); test: IP1 accumulation assay in mutation dependent melan-a cells; assay type: cell-based, mouse
T1 construct: host or cells: melan-a (immortalized mouse melanocytes), retroviral transduction with MSCV-Puro
T1 sequence (P50148 1-359 R183Q): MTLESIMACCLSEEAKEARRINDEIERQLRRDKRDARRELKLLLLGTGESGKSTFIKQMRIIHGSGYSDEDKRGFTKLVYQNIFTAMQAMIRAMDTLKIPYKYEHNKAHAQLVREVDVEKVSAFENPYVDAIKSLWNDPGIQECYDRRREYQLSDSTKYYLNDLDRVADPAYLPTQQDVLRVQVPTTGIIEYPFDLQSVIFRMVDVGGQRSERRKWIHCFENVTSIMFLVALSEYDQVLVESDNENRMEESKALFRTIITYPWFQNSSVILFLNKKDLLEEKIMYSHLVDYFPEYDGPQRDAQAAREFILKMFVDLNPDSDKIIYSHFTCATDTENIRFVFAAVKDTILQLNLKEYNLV
Description: Cells were treated with increasing concentrations of YM-254890 (YM) for 3 hours (top) and 24 hours (bottom). Error bars, s.e.m. from three biological replicates, each with three technical replicates.
as §2
IP1 Accumulation Assay. IP1 concentrations in GNAQ-transfected HEK293T cells, GNAQ-expressing melan-a cells and uveal melanoma cells was measured using a competitive homogenous time resolved fluorescence (HTRF) assay (CisBio, Bedford, Mass.). Briefly, 9,000 transiently transfected-HEK293T cells, 5,000 melan-a cells and 5,000 uveal melanoma cells were seeded in low-volume 384-well plates in 7 μL media for 24 hours prior YM-254890 treatment. Cells were then treated with various concentrations of YM-254890 diluted in the appropriate media at 37° C. for 3 hours or 24 hours. 1 h prior lysis, cells were supplemented with 1× Stimulation Buffer provided by the manufacturer (HEPES 10 mM, CaCl2) 1 mM, MgCl2 0.5 mM, KCl 4.2 mM, NaCl 146 mM, glucose 5.5 mM, LiCl 50 mM, pH 7.4) with 0.2% BSA and 50 mM of LiCl (to prevent IP1 degradation). Following incubation, cells were lysed by adding 3 μL/well of d2-labeled IP1 analogue as the fluorescence acceptor and the Terbium cryptate-labeled anti-IP1 mAb as the fluorescence donor, diluted in the kit-supplied lysis buffer. The plates were incubated overnight at RT and time-resolved fluorescence signals were read using the BioTek Synergy NEO plate reader (BioTek Instruments, Winooski, Vt.) at 620 nm and […]. Results were calculated as a 665 nm/620 nm signal ratio, and IP1 concentrations were interpolated from a standard curve prepared using the supplied IP1 calibrator. Results are shown as IP1 (nM). Dose-response curves and bar graphs were analyzed using GraphPad Prism 7.0 software.

Gαq^Q209L = Gαq^Q209L (Homo sapiens, UniProt P50148, Q209L); settings: overexpression systems, literature, cited from earlier work
Sequence of Gαq^Q209L (P50148 whole entry Q209L): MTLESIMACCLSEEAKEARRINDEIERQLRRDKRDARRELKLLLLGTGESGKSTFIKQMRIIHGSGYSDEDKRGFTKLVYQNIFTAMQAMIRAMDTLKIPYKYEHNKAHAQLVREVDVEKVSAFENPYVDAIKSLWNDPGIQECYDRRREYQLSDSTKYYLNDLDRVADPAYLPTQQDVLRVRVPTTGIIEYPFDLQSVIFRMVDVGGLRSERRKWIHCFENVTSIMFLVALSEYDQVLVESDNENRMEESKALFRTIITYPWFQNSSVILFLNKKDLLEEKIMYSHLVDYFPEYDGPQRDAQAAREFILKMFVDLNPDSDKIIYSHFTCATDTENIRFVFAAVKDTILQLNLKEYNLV

In the case of YM-254890, the “sensitivity of TPA-independent cell growth to YM” value (from here on “sensitivity … to YM”) [1] is reported as “completely resistant”, the “sensitivity … to YM” value [2] is reported as “completely resistant” and the “sensitivity … to YM” value [3] is reported as “modestly less sensitive”. The “sensitivity … to YM” value [4] was “sub-nanomolar sensitivity”, the colony formation [5] was “resistant” and the colony formation [6] was “moderate sensitivity”. The colony formation (Gq-mutant Mel202 cells) was “moderate sensitivity”, the “fold less sensitive than CYSLTR2^L129Q and GNAQ^G48V mutants (IP1 accumulation)” value (GNAQ^R183Q; 24-hour treatment) was “approximately 10 fold” and the “inhibition of IP1 accumulation” value (GNAQ^R183Q; 24-hour treatment) was “completely inhibited”. For the same substance, the “sensitivity of IP1 accumulation after 3 hours versus 24 hours” value (GNAQ^R183Q; 3 hours of treatment) was “less sensitive”, the “inhibition of aberrant Gαq signaling downstream of Gαq^Q209L” value (Gαq^Q209L) was “ineffective” and the “inhibition of aberrant Gαq signaling downstream of Gαq^Q209L” value (Gαq^Q209L; listed as YM) was “unable to inhibit”.
